# Measurements taken from patent US20240261272A1, “LPA1 ANTAGONISTS FOR TREATING INTERSTITIAL LUNG DISEASE” (Bristol-Myers Squibb Company, priority 2022, published 2024).
# Experiments:
# Type in all cases: in vivo, human
# [1] = Phase 1 Part C MAD study in healthy Japanese participants: blood pressure; details: for Maximum of Mean (±SD) Reduction in DBP from Baseline (Baseline): MAD Japanese Part C
# Description: (§1) The study was performed in 3 parts in 112 healthy male and female participants, including 24 Japanese participants. Female participants were to be not of childbearing potential. The present study was designed to evaluate the safety and tolerability, PK, and exploratory PD of an oral suspension of Compound A. Parts A and B (Cohort B1 only) enrolled healthy participants and was conducted at a site in The Netherlands and Part B (Cohort B2 to B5) enrolled healthy non-Japanese participants and was conducted at a site in the United Kingdom (UK). Part C enrolled healthy Japanese participants and was conducted at the same site in the UK.
# Part C was a MAD study in 3 sequential dose escalation cohorts (30 mg BID, 60 mg BID, and 90 mg BID) of 8 healthy Japanese participants (6 active+2 placebo) each. Eligible participants in Cohorts C1 to C3 received study drug (Compound A or placebo) administered orally for 14 days.
# (§2) Physical examinations, vital sign measurements (including orthostasis testing in Cohort A6, Cohort B3 to B5, and C1 to C3 at selected time points), 12-lead electrocardiogram (ECG), and clinical laboratory evaluations were performed at selected times throughout the study. In addition, Holter monitoring was performed for the first 24 hours post dose on Day 1 in Part A (not in FE/pH cohort), and also for the first 24 hours post dose on Day 1 and Day 14 in Parts B and C. Participants were closely monitored for adverse events (AEs). Blood samples were collected for up to 14 days (follow-up visit) after (last) study drug administration for PK analysis. In addition, blood and urine were collected for exploratory biomarker assessments and for biobanking of samples for potential analyses. Urine was collected for potential PK analysis for up to 96 hours after a single dose of Compound A or placebo was administered in the SAD part, and for up to 24 hours after the first (morning) dose of study drug on Day 1 and for up to 24 hours after the last (morning) dose of study drug on Day 14 in the MAD parts.
# participants with IPF = assay: Phase 2 study, IPF cohort: efficacy (rate of change in ppFVC, FVC); details: for relative treatment benefit compared to PBO (ppFVC) / relative reduction in rate of decline in ppFVC compared to PBO: 60 mg; for relative reduction in rate of decline in ppFVC compared to PBO: overall
# Description: A total of 278 participants with IPF were randomized and 276 participants were treated as of the final analyses data cut-off (4 Aug. 2022). Male and female participants ≥40 years of age with IPF and percent predicted forced vital capacity (ppFVC)≥40% and percent predicted DLCO (ppDLCO)≥25%; diagnosed within 7 years of screening; having a centrally-read chest HRCT obtained at screening that was consistent with UIP or probable UIP, or having a lung biopsy consistent with UIP, were eligible to enter the study. The mean baseline ppFVC for all subjects was 76.5%. In the primary IPF cohort, participants were randomized (1:1:1) to receive 30 mg or 60 mg Compound A or placebo (PBO) twice daily for 26 weeks. Participants were stratified by standard of care (SoC) IPF therapy (pirfenidone versus nintedanib versus none) and region (Japan versus Rest of World) at randomization.
# The primary objective of the study was to determine the rate of change in ppFVC from baseline to Week 26. The primary objective was evaluated with a two estimand framework to handle the intercurrent event of dose reduction to 10 mg BID or matching PBO when pre-specified low BP criteria is met. The primary estimand is adopted to estimate treatment effect when dose reduction is implemented. The supplementary estimand is adopted to estimate the effect of treatment without dose reduction.
# Analysis Strategy: The primary estimand was to evaluate the efficacy of Compound A at 30 mg or 60 mg twice daily, compared to PBO in IPF participants who met the enrollment criteria, with or without use of SoC. The rate of decline in ppFVC (%) from baseline to Week 26 was compared using the difference between each dose and PBO as a population level summary regardless of dose reduction or treatment discontinuation for any reason (treatment policy strategy).
# Analysis Strategy: The supplementary estimand for the primary objective is to evaluate the efficacy of Compound A at 30 mg or 60 mg twice daily without dose reduction, compared to the PBO in IPF subjects who met the enrollment criteria, with or without use of SoC. The rate of decline in ppFVC (%) from baseline to Week 26 has been compared using the difference between each dose and PBO as a population level summary regardless of treatment discontinuation for any reason (treatment policy strategy). In the event of dose reduction, data collected after dose reduction will not be considered relevant to the treatment effect of interest and therefore, will be treated as missing (while-on-treatment strategy).
# [2] = Phase 1 Part B multiple ascending dose (MAD) study in healthy participants: safety, blood pressure; parameters: Mean DBP: unit not given here
# Description: as §1
# Part B was a MAD study in a planned number of 6 sequential dose escalation cohorts (10 mg QD, 30 mg QD, 30 mg BID, 60 mg BID, 125 mg BID, and ≤250 mg BID) of 8 healthy participants (6 active+2 placebo) each, under fasted conditions. However, Cohort B6 (≤250 mg BID) was cancelled because sufficient safety and PK data had been obtained at doses up to 125 mg BID. Eligible participants received study drug (Compound A or placebo) administered orally for 14 days.
# as §2
smiles,measurement,setting,value
"CCCN(C)C(=O)OCc1c(-c2ccc(O[C@H]3CCC[C@H](C(=O)O)C3)c(C)n2)nnn1C [Compound A, (1S,3S)-3-((2-methyl-6-(1-methyl-5-(((methyl(propyl)carbamoyl)-oxy)methyl)-1H-1,2,3-triazol-4-yl)pyridin-3-yl)oxy)cyclohexane-1-carboxylic acid]",BP reduction dose dependence (in words),[1]; Japanese MAD cohorts,no clear Compound A dose-dependent BP reduction trend
same,Maximum of Mean (±SD) Reduction in DBP from Baseline (Baseline),[1]; 30 mg BID (C1),8.8 ± 5.12 mmHg
same,Maximum of Mean (±SD) Reduction in DBP from Baseline (Baseline),[1]; 60 mg BID (C2),8.2 ± 10.40 mmHg
same,Maximum of Mean (±SD) Reduction in DBP from Baseline (Baseline),[1]; 90 mg BID (C2),8.0 ± 8.22 mmHg
same,efficacy compared to PBO (in words),"participants with IPF; 30 mg dose group, Week 26",did not demonstrate efficacy
same,treatment response versus PBO (in words),"participants with IPF; 60 mg dose group, Week 26, ppFVC and FVC (mL)",favorable treatment responses
same,relative treatment benefit compared to PBO (ppFVC),"participants with IPF; not on background SoC, primary estimand",113%
same,relative treatment benefit compared to PBO (ppFVC),"participants with IPF; not on background SoC, supplementary estimand",123%
same,relative treatment benefit compared to PBO (ppFVC),"participants with IPF; on background SoC, primary estimand",39%
same,relative treatment benefit compared to PBO (ppFVC),"participants with IPF; on background SoC, supplementary estimand",44%
same,relative reduction in rate of decline in ppFVC compared to PBO,participants with IPF; primary estimand,54%
same,relative reduction in rate of decline in ppFVC compared to PBO,participants with IPF; supplementary estimand,62%
same,Mean DBP,"[2]; MAD 10 mg QD, D 1 2 h",70.2
same,Mean DBP,"[2]; MAD 10 mg QD, D 1 4 h",65.8
same,Mean DBP,"[2]; MAD 10 mg QD, D 1 8 h",68.7
same,Mean DBP,"[2]; MAD 10 mg QD, D 2 24 h",65.3
same,Mean DBP,"[2]; MAD 10 mg QD, D 14 312 h",69.3
same,Mean DBP,"[2]; MAD 10 mg QD, D 14 314 h",67.5
same,Mean DBP,"[2]; MAD 10 mg QD, D 14 317 h",64.3
same,Mean DBP,"[2]; MAD 10 mg QD, D 14 320 h",67.5
same,Mean DBP,"[2]; MAD 10 mg QD, D 15 336 h",66.8
same,Mean DBP,"[2]; MAD 30 mg BID, D 1 2 h",63.3
same,Mean DBP,"[2]; MAD 30 mg BID, D 1 4 h",62.7
same,Mean DBP,"[2]; MAD 30 mg BID, D 1 8 h",63.2
same,Mean DBP,"[2]; MAD 30 mg BID, D 2 24 h",66.7
same,Mean DBP,"[2]; MAD 30 mg BID, D 14 312 h",68.7
same,Mean DBP,"[2]; MAD 30 mg BID, D 14 314 h",63.8
same,Mean DBP,"[2]; MAD 30 mg BID, D 14 317 h",61.0
same,Mean DBP,"[2]; MAD 30 mg BID, D 14 320 h",617
same,Mean DBP,"[2]; MAD 30 mg BID, D 15 336 h",65.3
same,Mean DBP,"[2]; MAD 30 mg QD, D 1 2 h",66.5
same,Mean DBP,"[2]; MAD 30 mg QD, D 1 4 h",67.8
same,Mean DBP,"[2]; MAD 30 mg QD, D 1 8 h",66.0
same,Mean DBP,"[2]; MAD 30 mg QD, D 2 24 h",67.3
same,Mean DBP,"[2]; MAD 30 mg QD, D 14 312 h",63.3
same,Mean DBP,"[2]; MAD 30 mg QD, D 14 314 h",63.5
same,Mean DBP,"[2]; MAD 30 mg QD, D 14 317 h",61.8
same,Mean DBP,"[2]; MAD 30 mg QD, D 14 320 h",63.2
same,Mean DBP,"[2]; MAD 30 mg QD, D 15 336 h",62.3
same,Mean DBP,"[2]; MAD 60 mg BID, D 1 2 h",64.5
same,Mean DBP,"[2]; MAD 60 mg BID, D 1 4 h",66.0
same,Mean DBP,"[2]; MAD 60 mg BID, D 1 8 h",64.7
same,Mean DBP,"[2]; MAD 60 mg BID, D 2 24 h",65.7
same,Mean DBP,"[2]; MAD 60 mg BID, D 14 312 h",64.8
same,Mean DBP,"[2]; MAD 60 mg BID, D 14 314 h",64.0
same,Mean DBP,"[2]; MAD 60 mg BID, D 14 317 h",62.5
same,Mean DBP,"[2]; MAD 60 mg BID, D 14 320 h",63.0
same,Mean DBP,"[2]; MAD 60 mg BID, D 15 336 h",64.5
same,Mean DBP,"[2]; MAD 125 mg BID, D 1 2 h",62.3
same,Mean DBP,"[2]; MAD 125 mg BID, D 1 4 h",64.7
same,Mean DBP,"[2]; MAD 125 mg BID, D 1 8 h",64.7
same,Mean DBP,"[2]; MAD 125 mg BID, D 2 24 h",66.3
same,Mean DBP,"[2]; MAD 125 mg BID, D 14 312 h",62.0
same,Mean DBP,"[2]; MAD 125 mg BID, D 14 314 h",65.0
same,Mean DBP,"[2]; MAD 125 mg BID, D 14 317 h",59.2
same,Mean DBP,"[2]; MAD 125 mg BID, D 14 320 h",61.8
same,Mean DBP,"[2]; MAD 125 mg BID, D 15 336 h",63.0
same,BP reductions versus placebo (in words),[2]; MAD BID groups,no clear differences between placebo and the Compound A groups
